Three molecules from ChEMBL document CHEMBL3508693 (2016) can be followed below.

The nature of data set [1]: Oral clearance of SPP100 following single oral dose of SPP100 300 mg capsule studied in healthy human. It counts as ADME, organism-based. The settings on record: plasma.
The target in data set [2] is T1, CYP2A6 (Homo sapiens, UniProt P11509).
T1 sequence (P11509 whole entry): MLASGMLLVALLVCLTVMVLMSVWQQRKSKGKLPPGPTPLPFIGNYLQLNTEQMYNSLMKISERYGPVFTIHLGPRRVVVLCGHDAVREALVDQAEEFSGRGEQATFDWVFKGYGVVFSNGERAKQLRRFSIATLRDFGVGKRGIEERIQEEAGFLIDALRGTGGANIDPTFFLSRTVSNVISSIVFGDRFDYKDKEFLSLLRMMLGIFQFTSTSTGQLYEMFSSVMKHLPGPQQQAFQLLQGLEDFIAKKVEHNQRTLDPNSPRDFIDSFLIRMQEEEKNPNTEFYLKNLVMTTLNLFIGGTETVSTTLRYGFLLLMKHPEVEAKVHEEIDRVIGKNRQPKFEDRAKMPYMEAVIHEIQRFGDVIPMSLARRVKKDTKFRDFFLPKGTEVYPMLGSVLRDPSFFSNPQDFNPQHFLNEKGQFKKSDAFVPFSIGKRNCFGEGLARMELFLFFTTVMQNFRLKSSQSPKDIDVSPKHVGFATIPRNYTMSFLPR
Briefly: Inhibitory activity of 20 uM SPP100 on 37 Pmoles of cDNA-derived CYP2A6 enzyme in microsome prepared from human lymphoblastoid cell line. It counts as ADME, microsomes. Set-up: conc 20 uM, interact cpd conc 3 uM. The settings on record: probe coumarine.

Data set [3] addresses T1, CYP2A6. Briefly: Inhibitory activity of 200 uM SPP100 on 34 Pmoles of cDNA-derived CYP2A6 enzyme in microsome prepared from human lymphoblastoid cell line. It counts as ADME, microsomes. Further details: conc 200 uM, interact cpd conc 3 uM. The following applies: probe coumarine.
Data set [4] in a line: % of radioactivity recovered as aliskiren in plasma following oral administration of [14C] aliskiren hemifumarate at 100 mg.Kg-1 level in rat. It counts as ADME, organism-based, Albino HAN:WIST. The following applies: in vivo.
Data set [5] can be described thus: %Unchanged aliskiren in urine following 10 day repeated oral administration of [14C] aliskiren hemifumarate at 100 mg.Kg-1 level studied in rat. Type of data set: ADME, organism-based, Albino HAN:WIST. The following applies: in vivo, 240 h.
Data set [6] can be described thus: Excretion of radioactivity (48-72h) in faeces following single oral dose of 500 mg.Kg-1 [14C] aliskiren hemifumarate in mouse. Type of data set: ADME, organism-based, TgRasH2, Feces. The following applies: in vivo.
The nature of data set [7]: Excretion of radioactivity (48-72h) in faeces following single intravenous dose of 10 mg.Kg-1 [14C] aliskiren hemifumarate in mouse. Type of data set: ADME, organism-based, TgRasH2, Feces. The settings on record: in vivo.
Data set [8] in a line: Mean excretion of radioactivity (48-72h) in urine and faeces following single oral dose of 500 mg.Kg-1 [14C] aliskiren hemifumarate in mouse. Type of data set: ADME, organism-based, TgRasH2, Urine/Feces. The settings on record: in vivo.
Data set [9] is described as follows: Excretion of radioactivity (0-72h) in urine following single intravenous dose of 10 mg.Kg-1 [14C] aliskiren hemifumarate in mouse. It counts as ADME, organism-based, TgRasH2. The following applies: in vivo.
Data set [10] in a line: Elimination (0-96h) of radioactivity via biliary route following oral administration of [14C] aliskiren hemifumarate at 100 mg.Kg-1 level in rat. Type of data set: ADME, organism-based, Albino HAN:WIST, Bile. The settings on record: in vivo.
Data set [11] in a line: Excretion of radioactivity (0-24h) in urine following single intravenous dose of 10 mg.Kg-1 [14C] aliskiren hemifumarate in rat. It counts as ADME, organism-based, Albino HAN:WIST. The following applies: in vivo.
A short description of data set [12]: Excretion of radioactivity (0-24h) in faeces following single intravenous dose of 10 mg.Kg-1 [14C] aliskiren hemifumarate in rat. The settings on record: in vivo. Type of data set: ADME, organism-based, Albino HAN:WIST, Feces.
Data set [13] in a line: Excretion of radioactivity (48-72h) in urine following single intravenous dose of 10 mg.Kg-1 [14C] aliskiren hemifumarate in rat. The following applies: in vivo. It counts as ADME, organism-based, Albino HAN:WIST.
The nature of data set [14]: Excretion of radioactivity (48-72h) in faeces following single intravenous dose of 10 mg.Kg-1 [14C] aliskiren hemifumarate in rat. Type of data set: ADME, organism-based, Albino HAN:WIST, Feces. The following applies: in vivo.
Data set [15] is described as follows: Excretion of radioactivity (72-96h) in urine following single oral dose of 100 mg.Kg-1 [14C] aliskiren hemifumarate in rat. Type of data set: ADME, organism-based, Albino HAN:WIST. The settings on record: in vivo.
Data set [16] can be described thus: Mean excretion of radioactivity (72-96h) in urine and faeces following single oral dose of 100 mg.Kg-1 [14C] aliskiren hemifumarate in rat. Type of data set: ADME, organism-based, Albino HAN:WIST, Urine/Feces. The following applies: in vivo.
Data set [17] is described as follows: Concentration of radioactivity in the brown fat following repeated oral administration of [14C] aliskiren hemifumarate at 100 mg.Kg-1 level studied at 24h after 7th dose in rat. It counts as ADME, organism-based, Albino HAN:WIST, Brown adipose tissue. The following applies: in vivo.
Data set [18] in a line: Concentration of radioactivity in the kidney medulla following repeated oral administration of [14C] aliskiren hemifumarate at 100 mg.Kg-1 level studied at 24h after 10th dose in rat. It counts as ADME, organism-based, Albino HAN:WIST, Renal medulla. The settings on record: in vivo.
Data set [19] in a line: Excretion of radioactivity (0-384h) in faeces following 10 day repeated oral administration of [14C] aliskiren hemifumarate at 100 mg.Kg-1 level studied in rat. Type of data set: ADME, organism-based, Albino HAN:WIST, Feces. The settings on record: in vivo.
The nature of data set [20]: AUC of aliskiren hemifumarate following single dosing of SPP100B oral solution at 40 mg level studied on day 1 in men. It counts as ADME, organism-based. The following applies: male, human, plasma.
The target of another data set is hERG (KCNH2) (Homo sapiens, UniProt Q12809). Briefly: Effects of 10 uM aliskiren hemifumarate on current through cloned hERG channel expressed in human embryonic kidney cell. Type of data set: cell-based. Further details: conc 10 uM, dose level Low. The following applies: HEK293 cells that express cloned hERG channel, read-out: Inhibitory activity.
hERG (KCNH2), sequence (Q12809 whole entry): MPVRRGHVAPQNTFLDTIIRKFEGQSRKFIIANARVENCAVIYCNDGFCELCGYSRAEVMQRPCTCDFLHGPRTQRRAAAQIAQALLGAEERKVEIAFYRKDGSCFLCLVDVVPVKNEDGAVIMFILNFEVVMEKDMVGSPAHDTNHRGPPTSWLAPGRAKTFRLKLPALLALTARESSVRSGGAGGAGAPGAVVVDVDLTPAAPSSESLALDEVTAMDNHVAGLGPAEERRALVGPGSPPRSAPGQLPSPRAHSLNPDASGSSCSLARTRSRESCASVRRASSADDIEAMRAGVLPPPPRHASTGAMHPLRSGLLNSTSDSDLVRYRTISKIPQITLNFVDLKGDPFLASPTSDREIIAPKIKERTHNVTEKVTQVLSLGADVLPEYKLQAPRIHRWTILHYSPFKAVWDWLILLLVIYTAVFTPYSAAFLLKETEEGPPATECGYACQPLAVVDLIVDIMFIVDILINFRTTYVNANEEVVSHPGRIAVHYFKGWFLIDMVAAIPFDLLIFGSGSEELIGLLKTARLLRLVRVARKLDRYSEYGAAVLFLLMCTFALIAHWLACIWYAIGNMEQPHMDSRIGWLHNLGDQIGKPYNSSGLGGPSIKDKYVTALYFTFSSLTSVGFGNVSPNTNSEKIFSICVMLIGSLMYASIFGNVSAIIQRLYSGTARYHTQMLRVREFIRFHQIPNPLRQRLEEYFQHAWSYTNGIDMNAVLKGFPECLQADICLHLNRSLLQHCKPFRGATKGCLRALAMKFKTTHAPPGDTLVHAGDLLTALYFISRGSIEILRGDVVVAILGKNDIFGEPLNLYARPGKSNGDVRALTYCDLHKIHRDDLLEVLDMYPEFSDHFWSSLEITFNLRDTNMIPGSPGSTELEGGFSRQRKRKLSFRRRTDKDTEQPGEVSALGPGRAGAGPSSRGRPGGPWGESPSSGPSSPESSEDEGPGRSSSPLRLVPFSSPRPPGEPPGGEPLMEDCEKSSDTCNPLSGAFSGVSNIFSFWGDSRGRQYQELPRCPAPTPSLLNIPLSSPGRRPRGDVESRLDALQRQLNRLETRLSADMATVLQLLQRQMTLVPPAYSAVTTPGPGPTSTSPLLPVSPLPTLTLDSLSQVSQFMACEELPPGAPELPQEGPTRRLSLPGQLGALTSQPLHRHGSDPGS
The target of data set [21] is Voltage-gated inwardly rectifying potassium channel KCNH2 (Homo sapiens, UniProt Q12809). Briefly: Inhibitory concentration of aliskiren hemifumarate against cloned hERG channel expressed in human embryonic kidney cell. Type of data set: cell-based. The settings on record: hek293.
Voltage-gated inwardly rectifying potassium channel KCNH2, sequence (Q12809 whole entry): as above
The nature of data set [22]: Tmax of unlabeled aliskiren hemifumarate following single intravenous dose of aliskiren hemifumarate at 10 mg.Kg-1 level in mouse. Type of data set: ADME, organism-based. The following applies: TgRasH2, mouse, plasma.
Data set [23] in a line: Effect of 2 week oral dosing of aliskiren hemifumarate at 50 mg.Kg-1 level on blood urea nitrogen level in male Callithrix jacchus. It counts as toxicity, organism-based, Plasma. The settings on record: marmoset, 336 h.
A short description of data set [24]: Effect of 2 week oral dosing of aliskiren hemifumarate at 10 mg.Kg-1 level on blood urea nitrogen level in female Callithrix jacchus. Type of data set: toxicity, organism-based, Plasma. The settings on record: marmoset, 336 h.
The nature of data set [25]: Effect of 2 week oral dosing of aliskiren hemifumarate at 50 mg.Kg-1 level on plasma creatinine level in female Callithrix jacchus. The settings on record: marmoset, 336 h. Type of data set: toxicity, organism-based.
Data set [26] can be described thus: Cmax of aliskiren hemifumarate following 2 week oral dosing of aliskiren hemifumarate at 10 mg.Kg-1 level studied on day 1 in female Callithrix jacchus. It counts as ADME, organism-based. The settings on record: marmoset, plasma.
The nature of data set [27]: Cmaxspec of aliskiren hemifumarate following 2 week oral dosing of aliskiren hemifumarate at 50 mg.Kg-1 level studied on day 1 in male Callithrix jacchus. It counts as ADME, organism-based, Plasma. The settings on record: marmoset, in vivo, 336 h.
Data set [28] is described as follows: Cmax/dose of aliskiren hemifumarate following 4 week oral dietary dosing of aliskiren hemifumarate at 1000 mg.Kg-1 level in male mouse. Type of data set: ADME, organism-based, CB6F1-TGrasH2. The following applies: in vivo, 672 h.
Data set [29] in a line: AUC(0-24h) of aliskiren hemifumarate following 2 week oral dosing of aliskiren hemifumarate at 10 mg.Kg-1 level studied on day 1 in male Callithrix jacchus. It counts as ADME, organism-based. The settings on record: marmoset, plasma.
Data set [30] can be described thus: AUCspec of aliskiren hemifumarate following 2 week oral dosing of aliskiren hemifumarate at 10 mg.Kg-1 level studied on day 1 in male Callithrix jacchus. Type of data set: ADME, organism-based, Plasma. The following applies: marmoset, in vivo, 336 h.
Data set [31] is described as follows: AUCspec of aliskiren hemifumarate following 2 week oral dosing of aliskiren hemifumarate at 100 mg.Kg-1 level studied on day 1 in female Callithrix jacchus. It counts as ADME, organism-based, Plasma. The following applies: marmoset, in vivo, 336 h.
Data set [32] in a line: AUCspec of aliskiren hemifumarate following 2 week oral dosing of aliskiren hemifumarate at 100 mg.Kg-1 level studied on day 14 in female Callithrix jacchus. Type of data set: ADME, organism-based, Plasma. The following applies: marmoset, in vivo, 336 h.
Data set [33] is described as follows: AUCss(tau)/dose of aliskiren hemifumarate following repeated oral administration of [14C] aliskiren hemifumarate at 100 mg.Kg-1 level studied in rat. It counts as ADME, organism-based, Albino HAN:WIST, Plasma. The following applies: in vivo.

SMILES strings stand for the structures.

`COCCCOc1cc(C[C@@H](C[C@H](N)[C@@H](O)C[C@H](C(=O)NCC(C)(C)C(N)=O)C(C)C)C(C)C)ccc1OC` gave a CL/F in data set [1] of 4230 mL/min. This molecule also returned an inhibition at 20 µM against CYP2A6 [2] of 2.6%. This molecule yielded an inhibition at 200 µM on CYP2A6 [3] of 10.5%. Besides, the Compound recovery in data set [4] is reported as > 40%; in data set [5], 43%.
On to `COCCCOc1cc(C[C@@H](C[C@H](N)[C@@H](O)C[C@H](C(=O)NCC([14CH3])([14CH3])C(N)=O)C(C)C)C(C)C)ccc1OC.O=C(O)/C=C/C(=O)O`, for which the Radiolabel recovery is 0.16% in [6]; 0.74% in data set [7]; 9.33% in data set [8]; 87.94% in data set [9]; “OUTCOME = Observed/Elimination of radioactivity was mainly via biliary route” in [10]; 35.6% in data set [11]. Further, the Radiolabel recovery was 55.7% in data set [12]; 16.2% in data set [13]; 4.69% in [14]; 0.01% in [15]; 2.54% in [16]; “OUTCOME = Detected” in [17]. Moreover, the figures for the Radiolabel recovery entry in [18] and in [19] were “OUTCOME = Detected” and 102%, respectively.
In [20], `COCCCOc1cc(C[C@@H](C[C@H](N)[C@@H](O)C[C@H](C(=O)NCC(C)(C)C(N)=O)C(C)C)C(C)C)ccc1OC.COCCCOc1cc(C[C@@H](C[C@H](N)[C@@H](O)C[C@H](C(=O)NCC(C)(C)C(N)=O)C(C)C)C(C)C)ccc1OC.O=C(O)/C=C/C(=O)O` [ALISKIREN FUMARATE] yielded an AUC of 0.0285 µg·h/mL. Besides, the inhibition at 10 µM on hERG (KCNH2) was determined as 1.4%. In [21], this molecule registered an IC25 of 670.9 µM. The IC50 entry in data set [21] is on record as “OUTCOME = IC50 was not calculated since inhibition did not reach 50% level”. Moreover, in [22], the Tmax was determined as 4.98 min. Besides, the BUN_CHANGE_BY came to 105% in data set [23] and 69% in [24]. Besides, in data set [25], the CREAT_CHANGE_BY is on record as 130%. This molecule returned a Cmax in data set [26] of 3.96 µg/mL. The Cmax normalised in data set [27] is recorded as 0.126 (ug/ml)/(mg/kg); in [28] it was 0.879 (ng/mL)/(mg/kg/day). This molecule also showed an AUC(0-t) at 24 h in data set [29] of 22 µg·h/mL. Besides, the AUC normalised in data set [30] is recorded as 2.2 ((ug.h.ml-1)/(mg/kg); in data set [31] it was 0.84 ((ug.h.ml-1)/(mg/kg); in [32] it was 1.42 ((ug.h.ml-1)/(mg/kg). Besides, the “AUCss(tau) normalised” value in data set [33] is given as 10 (nmol.h.L-1)/(mg/kg).
